In brackets after ≈: the same amount, converted by molar mass. Where only a bound is given, the exact number is not on record here.

Assay [1] addresses Glycogen synthase kinase-3 alpha (Homo sapiens, UniProt P49840). In words: Inhibition of GSK3alpha (unknown origin) using GS-l peptide as substrate and [gamma-33P]-ATP after 10 min.
The target of assay [2] is Glycogen synthase kinase-3 beta (Homo sapiens, UniProt P49841). Kind of assay: Inhibition of GSK3beta (unknown origin) using GS-l peptide as substrate and [gamma-33P]-ATP after 10 min.
Assay [3] concerns the target Dual specificity tyrosine-phosphorylation-regulated kinase 1A (Homo sapiens, UniProt Q13627). In words: Inhibition of DYRK1A (unknown origin) using [gamma-33P]-ATP after 10 min.
In assay [4] the target is Cyclin-dependent kinase 5/CDK5 activator 1 (Homo sapiens, UniProt Q00535). In words: Inhibition of CDK5/p25 (unknown origin) using histone H1 as substrate and [gamma-33P]-ATP after 10 min. In kind it is protein-complex assay.
In assay [5] the target is T1, Cyclin-dependent kinase 1/cyclin B1 (Homo sapiens, UniProt P06493). In words: Inhibition of CDK1/cyclin B (unknown origin) using histone H1 as substrate and [gamma-33P]-ATP after 10 min. It counts as protein-complex assay.
Assay [6] deals with Escherichia coli. Kind of assay: Antimicrobial activity against Escherichia coli NCTC 10418 by agar cup diffusion technique. It counts as functional.
In assay [7] the test system is Pseudomonas aeruginosa. Kind of assay: Antimicrobial activity against Pseudomonas aeruginosa ATCC 9027 by agar cup diffusion technique. In kind it is functional.
Assay [8] has as its system Candida albicans. Kind of assay: Antimicrobial activity against Candida albicans ATCC 10231 by agar cup diffusion technique. It counts as functional.
Assay [9] concerns Candida albicans. Kind of assay: Antimicrobial activity against Candida albicans ATCC 10231 by two-fold serial dilution technique. It counts as functional.
In assay [10] the test system is Staphylococcus aureus. In words: Antimicrobial activity against Staphylococcus aureus ATCC 6538 by agar cup diffusion technique. In kind it is functional.
Assay [11] has as its system Staphylococcus aureus. Kind of assay: Antimicrobial activity against Staphylococcus aureus ATCC 6538 by two-fold serial dilution technique. It counts as functional.
Assay [12] deals with Pseudomonas aeruginosa. Kind of assay: Antimicrobial activity against Pseudomonas aeruginosa ATCC 9027 by two-fold serial dilution technique. It counts as functional.
Assay [13] has as its target T1, Cyclin-dependent kinase 1/cyclin B1. Kind of assay: Inhibition of CDK1/cyclin B (unknown origin). In kind it is protein-complex assay.
Assay [14] has as its system Escherichia coli. In words: Antimicrobial activity against Escherichia coli NCTC 10418 by two-fold serial dilution technique. It counts as functional.

Sequence of Cyclin-dependent kinase 5/CDK5 activator 1 (Q00535 whole entry): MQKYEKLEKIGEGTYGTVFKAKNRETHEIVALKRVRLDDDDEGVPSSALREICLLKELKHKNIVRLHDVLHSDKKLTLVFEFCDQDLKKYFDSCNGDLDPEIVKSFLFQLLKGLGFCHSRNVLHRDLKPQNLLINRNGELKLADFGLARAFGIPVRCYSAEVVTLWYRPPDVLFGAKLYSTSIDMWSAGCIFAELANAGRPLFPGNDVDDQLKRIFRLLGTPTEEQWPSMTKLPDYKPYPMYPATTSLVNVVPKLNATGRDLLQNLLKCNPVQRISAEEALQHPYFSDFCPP
Sequence of Cyclin-dependent kinase 5/CDK5 activator 1 (Q15078 whole entry, further chain): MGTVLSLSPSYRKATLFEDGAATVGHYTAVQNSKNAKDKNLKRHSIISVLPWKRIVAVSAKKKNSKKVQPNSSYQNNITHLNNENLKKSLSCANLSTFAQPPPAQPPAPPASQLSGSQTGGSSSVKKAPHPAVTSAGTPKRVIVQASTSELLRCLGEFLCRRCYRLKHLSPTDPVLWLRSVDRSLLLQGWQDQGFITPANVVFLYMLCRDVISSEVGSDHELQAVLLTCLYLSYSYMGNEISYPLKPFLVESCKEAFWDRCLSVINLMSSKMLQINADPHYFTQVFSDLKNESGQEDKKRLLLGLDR
Sequence of Glycogen synthase kinase-3 beta (P49841 whole entry): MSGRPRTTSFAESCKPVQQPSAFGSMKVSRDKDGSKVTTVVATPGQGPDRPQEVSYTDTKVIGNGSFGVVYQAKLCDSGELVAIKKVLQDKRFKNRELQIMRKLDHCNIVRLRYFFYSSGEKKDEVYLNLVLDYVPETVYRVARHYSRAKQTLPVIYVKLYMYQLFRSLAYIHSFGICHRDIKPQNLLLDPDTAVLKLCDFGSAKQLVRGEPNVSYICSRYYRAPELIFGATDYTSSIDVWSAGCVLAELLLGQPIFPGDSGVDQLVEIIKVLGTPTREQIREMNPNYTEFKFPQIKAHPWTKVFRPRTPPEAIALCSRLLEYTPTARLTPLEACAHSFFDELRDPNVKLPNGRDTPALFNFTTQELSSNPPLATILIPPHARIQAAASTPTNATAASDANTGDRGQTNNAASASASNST
Sequence of Glycogen synthase kinase-3 alpha (P49840 whole entry): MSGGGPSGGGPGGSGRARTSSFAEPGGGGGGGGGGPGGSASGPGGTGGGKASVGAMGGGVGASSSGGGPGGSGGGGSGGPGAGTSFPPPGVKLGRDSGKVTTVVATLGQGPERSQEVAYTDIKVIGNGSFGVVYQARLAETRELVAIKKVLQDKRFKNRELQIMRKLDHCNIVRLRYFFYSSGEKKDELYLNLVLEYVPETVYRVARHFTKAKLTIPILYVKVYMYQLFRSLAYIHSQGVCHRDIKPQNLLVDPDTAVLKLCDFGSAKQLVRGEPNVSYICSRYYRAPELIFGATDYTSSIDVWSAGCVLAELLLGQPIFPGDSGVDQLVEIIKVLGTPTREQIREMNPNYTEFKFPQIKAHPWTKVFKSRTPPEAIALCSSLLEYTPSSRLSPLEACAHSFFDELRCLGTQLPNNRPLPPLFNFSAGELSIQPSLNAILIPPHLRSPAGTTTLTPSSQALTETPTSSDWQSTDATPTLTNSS
T1 sequence (P06493 whole entry, the tested form may be a part): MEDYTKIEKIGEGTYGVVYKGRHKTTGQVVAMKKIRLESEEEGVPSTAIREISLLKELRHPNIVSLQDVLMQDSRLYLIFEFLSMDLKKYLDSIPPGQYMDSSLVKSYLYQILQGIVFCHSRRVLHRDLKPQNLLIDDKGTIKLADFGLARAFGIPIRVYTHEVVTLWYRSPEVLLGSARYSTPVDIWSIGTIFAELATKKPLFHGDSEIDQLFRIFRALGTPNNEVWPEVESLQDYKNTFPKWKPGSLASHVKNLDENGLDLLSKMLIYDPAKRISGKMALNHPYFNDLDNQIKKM
T1 sequence (P14635 whole entry, further chain, the tested form may be a part): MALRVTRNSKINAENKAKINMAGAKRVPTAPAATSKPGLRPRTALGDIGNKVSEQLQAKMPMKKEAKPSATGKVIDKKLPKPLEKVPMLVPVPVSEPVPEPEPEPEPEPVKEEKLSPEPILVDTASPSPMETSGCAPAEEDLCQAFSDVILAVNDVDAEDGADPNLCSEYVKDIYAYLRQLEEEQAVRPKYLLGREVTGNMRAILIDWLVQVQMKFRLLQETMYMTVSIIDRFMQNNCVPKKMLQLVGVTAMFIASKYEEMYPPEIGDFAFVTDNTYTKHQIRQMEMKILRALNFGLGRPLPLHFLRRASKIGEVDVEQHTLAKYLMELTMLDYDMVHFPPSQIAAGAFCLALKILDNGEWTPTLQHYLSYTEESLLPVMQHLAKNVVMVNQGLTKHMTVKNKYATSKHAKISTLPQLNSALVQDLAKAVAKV

Consider `O=c1[nH]cnc2c(-c3ccc(Br)cc3)n[nH]c12`, for which the IC50 in assay [1], in assay [2], in assay [3], in [4] and in assay [5] was > 10 µM each time. The “diameter of the inhibition zone (DIZ)” value in [6] amounted to 15.5 mm; in [7] it was 17.5 mm; in [8] it was 28 mm. The compound further yielded an MBC in [9] of 250 µg/mL (≈ 859 µM). In assay [9], this compound showed an MIC of 250 µg/mL (≈ 859 µM).

As for `CCOc1ccc(S(=O)(=O)N2CCOCC2)cc1-c1nc2ncccc2c(=O)[nH]1`, the IC50 in assay [1], in [2], in [3], in assay [4] and in assay [5] was > 10 µM in each case. Also, the “diameter of the inhibition zone (DIZ)” value in [10] turned out to be 10 mm; in assay [6], 17 mm; in [7], 15 mm; in assay [8] it was 17 mm.

Take `CCOc1ccc(S(=O)(=O)N2CCN(c3ccccc3)CC2)cc1-c1nc2ncccc2c(=O)[nH]1`: the IC50 in assay [1], in assay [2], in assay [3], in [4] and in [5] was > 10 µM throughout. Besides, the “diameter of the inhibition zone (DIZ)” value was found to be 12 mm in assay [10], 16.5 mm in assay [6], 15.5 mm in [7] and 25 mm in assay [8]. For the same compound, the MBC in assay [9] stood at 250 µg/mL (≈ 509 µM). Further, the MIC in assay [9] worked out at 62.5 µg/mL (≈ 127 µM).

As for `CCOC(=O)C(=O)/C(=N\Nc1ccccc1)C(=O)c1ccccc1`, the concentration for half-maximal inhibition (IC50) in [1], in assay [2], in assay [3], in [4] and in assay [5] was > 10 µM throughout. The “diameter of the inhibition zone (DIZ)” value in assay [6], in [7] and in assay [8] was 16 mm in each case.

On to `CCOC(=O)C(=O)/C(=N\Nc1ccccc1)C(=O)c1ccc(Cl)cc1`, for which the IC50 in assay [1], in [2], in assay [3], in [4] and in [5] was > 10 µM each time. Moreover, the “diameter of the inhibition zone (DIZ)” value in assay [6] is reported as 16 mm; in [7] it was 17 mm; in assay [8], 16 mm.

As to `O=C1NN=C(c2ccccc2)/C(=N/Nc2ccccc2)C1=O`, the IC50 in [1], in assay [2], in [3], in assay [4] and in [5] was > 10 µM each time. Further, the “diameter of the inhibition zone (DIZ)” value in [10] came to 30 mm; in [6] it was 17 mm; in assay [7], 24 mm; in assay [8], 17.5 mm. The MBC was 62.5 µg/mL (≈ 214 µM) in assay [11] and 125 µg/mL (≈ 428 µM) in assay [12]. Further, the MIC in assay [11] stood at 62.5 µg/mL (≈ 214 µM); in assay [12], 125 µg/mL (≈ 428 µM).

For the compound `O=C1NN=C(c2ccc(Br)cc2)/C(=N/Nc2ccccc2)C1=O`, the IC50 in [1], in assay [2], in [3], in assay [4] and in assay [5] was > 10 µM throughout. The “diameter of the inhibition zone (DIZ)” value is given as 20 mm in assay [10], 16 mm in assay [6], 17.5 mm in [7] and 16.5 mm in [8]. In assay [11], this compound registered an MBC of 250 µg/mL (≈ 674 µM). The MIC in [11] is 250 µg/mL (≈ 674 µM).

With `CCOC(=O)c1[nH]nc(-c2ccc(F)cc2)c1/N=N/c1ccccc1`, the IC50 in assay [1], in assay [2], in assay [3], in [4] and in [5] was > 10 µM throughout. Moreover, the “diameter of the inhibition zone (DIZ)” value in assay [10] was found to be 20 mm; in assay [6], 16 mm; in assay [7], 17 mm; in assay [8], 16 mm. In assay [11], this compound displayed an MBC of 250 µg/mL (≈ 739 µM). In addition, in assay [11], 250 µg/mL (≈ 739 µM) was the least that counted as inhibitory (MIC).

Turning to `CCOC(=O)c1[nH]nc(-c2ccc(Cl)cc2)c1/N=N/c1ccccc1`, the IC50 in assay [1], in [2], in [3], in assay [4] and in [5] was > 10 µM each time. Also, the “diameter of the inhibition zone (DIZ)” value worked out at 21 mm in assay [10], 16.5 mm in [6], 16 mm in [7] and 16 mm in assay [8]. In assay [11], the MBC was 250 µg/mL (≈ 705 µM). This compound registered an MIC in assay [11] of 125 µg/mL (≈ 352 µM).

With `CCOC(=O)c1[nH]nc(-c2ccc(Cl)cc2)c1N`, the IC50 in assay [1], in assay [2], in [3], in assay [4] and in assay [5] was > 10 µM in each case. For the same compound, the “diameter of the inhibition zone (DIZ)” value in assay [10] turned out to be 10 mm; in assay [6] it was 17 mm; in assay [7], 23 mm; in assay [8], 17 mm. Also, the MBC in assay [12] is > 500 µg/mL. Also, the MIC in [12] amounted to 125 µg/mL (≈ 470 µM).

Consider `CCOC(=O)c1[nH]nc(-c2ccc(Br)cc2)c1N`, for which the half-inhibitory concentration (IC50) in [1], in assay [2], in assay [3], in assay [4] and in assay [5] was > 10 µM each time. Moreover, the “diameter of the inhibition zone (DIZ)” value in assay [10] came to 14 mm; in assay [6] it was 15.5 mm; in assay [7], 17 mm; in assay [8] it was 16 mm.

Regarding `O=c1[nH]cnc2c(-c3ccccc3)n[nH]c12`, the IC50 in assay [1], in assay [2], in assay [3], in assay [4] and in assay [5] was > 10 µM each time. In addition, the “diameter of the inhibition zone (DIZ)” value in [10] is 11 mm; in assay [6], 16 mm; in assay [7], 17.5 mm; in [8], 17 mm.

With `COc1ccc(CNc2ncnc3c(C(C)C)n[nH]c23)cc1O`, in assay [13], the IC50 stood at 1100 nM.

Regarding `CC1(C)S[C@@H]2[C@H](NC(=O)[C@H](N)c3ccccc3)C(=O)N2[C@H]1C(=O)O` [AMPICILLIN], the results for the “diameter of the inhibition zone (DIZ)” value in assay [10], in assay [6] and in assay [7] were 40 mm, 26 mm and 18 mm, respectively. Further, the MBC in [11] came out at 15.6 µg/mL (≈ 44.7 µM); in assay [14], 31.2 µg/mL (≈ 89.4 µM); in assay [12], 500 µg/mL (≈ 1430 µM). Besides, the figures for the MIC in assay [11] and in assay [12] were 3.9 µg/mL (≈ 11.2 µM) and 250 µg/mL (≈ 715 µM), respectively.

In the case of `Clc1ccccc1C(c1ccccc1)(c1ccccc1)n1ccnc1` [CLOTRIMAZOLE], the “diameter of the inhibition zone (DIZ)” value in assay [8] worked out at 28 mm. In [9], this compound registered an MBC of 15.6 µg/mL (≈ 45.3 µM) and an MIC of 7.81 µg/mL (≈ 22.6 µM).

A word on the IC50: it is the midpoint of a concentration-inhibition curve. In general, MIC refers to the lowest concentration that inhibits growth of the organism. Read a low MIC as greater potency.

The values above are taken from ChEMBL document CHEMBL3046637, “Synthesis of new series of pyrazolo[4,3-d]pyrimidin-7-ones and pyrido[2,3-d]pyrimidin-4-ones for their bacterial and cyclin-dependent kinases (CDKs) inhibitory activities” (Med Chem Res, 2011).
